A short description of series [1]: Compound stability in human liver microsomes. To be noted: pH 7.4. The class given is in vitro ADME. The method, boiled down:
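Compounds (5 μM, 0.05% DMSO) incubated in duplicate with liver microsomes (0.5 mg protein/mL) and 1.0 mM NADPH in 100 mM phosphate buffer pH 7.4 at 37 °C, sampled 0–60 min. Remaining compound measured by LC/MS/MS, expressed as percent of zero-time control; denatured-microsome and dextromethorphan controls included.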
(In general: Microsomes from liver hold many membrane-bound enzymes, among them those of drug oxidation.)

The nature of series [2]: Pharmacokinetic profiles in rats. The class given is in vivo, rat. As for the experimental part:
The compounds disclosed herein are assessed in pharmacokinetic studies in mice, rats, dogs or monkeys. The compounds are administered as a water solution, 2% HPMC+1% TWEEN®80 in water solution, 5% DMSO+5% solutol in saline, 4% MC suspension or capsule. For the intravenous administration, the animals are generally given at 1 or 2 mg/kg dose. For the oral (p.o.) dosing, mice and rats are generally given 5 or 10 mg/kg dose, and dogs and monkeys are generally given 10 mg/kg dose. The blood samples (0.3 mL) are drawn at 0.25, 0.5, 1.0, 2.0, 3.0, 4.0, 6.0, 8.0, 12 and 24 h time points or 0.083, 0.25, 0.5, 1.0, 2.0, 4.0, 6.0, 8.0 and 24 h time points and centrifuged at 3,000 or 4000 rpm for 2 to 10 min. The plasma solutions are collected, stored at −20° C. or −70° C. until analyzed by LC/MS/MS as described above.

For a further series, the target named is PI3K (p110α/p85α) (h) (Homo sapiens (Human), UniProt P42336). Description: PI3K (p110α/p85α) (h) non-radioactive HTRF kinase assay. The class given is biochemical. How it is done:
(§1) PI3K (p110α/p85α) (h) is incubated in assay buffer containing 10 μM phosphatidylinositol 4,5-bisphosphate and MgATP (concentration as required). The reaction is initiated by the addition of the ATP solution. After incubation for 30 minutes at room temperature, the reaction is stopped by the addition of stop solution containing EDTA and biotinylated phosphatidylinositol-3,4,5-trisphosphate. Finally, detection buffer is added, which contains europium-labelled anti-GST monoclonal antibody, GST-tagged GRP1 PH domain and streptavidin allophycocyanin. The plate is then read in timeresolved fluorescence mode and the homogenous time-resolved fluorescence (HTRF) signal is determined according to the formula HTRF=10000×(Em665 nm/Em620 nm).
(§2) The kinase assays described herein were performed at Millipore UK Ltd, Dundee Technology Park, Dundee DD2 1SW, UK.
(In general: TR-FRET usually uses a lanthanide donor and a delayed reading to cut background.)

A further series deals with PI3K (p120γ) (h) (Homo sapiens (Human), UniProt P48736). Description: PI3K (p120γ) (h) non-radioactive HTRF kinase assay. The class given is biochemical. How it is done:
as §1, with “(p120γ)” for “(p110α/p85α)”, “phosphatidylinositol-4, 5-bisphosphate” for “phosphatidylinositol 4,5-bisphosphate”, “MgATP mix.” for “ATP solution.”, “streptavidin-allophycocyanin.” for “streptavidin allophycocyanin.”
as §2

The test system of the next series is PI3K-α (SKOV3). Kind of series: p-AKT HTRF assay, PI3K-α in SKOV3 cells. To be noted: Homo sapiens, SK-OV-3. The class given is cell-based. As for the experimental part: (§3) Cells were incubated at 37° C. in a 5% CO2 atmosphere overnight. […] Medium was then aspirated and 50 μL/well of lysis buffer was added. Plates were shaked for 45 minutes at room temperature and then 16 ul/well of lysate was transferred to 384-well plate. 4 ul/well of premixed antibody was added to the wells. The plate was centrifuged at 1000 rpm at RT for 1 minute and then incubated for 4 hours at 22° C., and Phospho-AKT (ser473) Kit was used for detection.

In a further series the test system is PI3K-δ (RAJI). Kind of series: p-AKT HTRF assay, PI3K-δ in RAJI cells stimulated with anti-IgM. The class given is cell-based. To be noted: anti-human IgM stimulation. How it is done: as §3
A further series relates to PI3K-γ (RAW264.7). Kind of series: p-AKT HTRF assay, PI3K-γ in RAW 264.7 cells stimulated with C5a. The class given is cell-based, murine. To be noted: Mus musculus; RAW264.7 cells, C5a stimulation. How it is done:
as §3

For the next series, the system named is CCRF-SB. Kind of series: Cell proliferation assay (CTG), CCRF-SB. To be noted: Homo sapiens, 72 h. The class given is cell-based. How it is done: (§4) • 1. Harvest cells during the logarithmic growth period and count cell number using Count-star. • 2. Adjust cell concentrations to […] with respective culture medium. • 3. Add 90 μL cell suspensions to 96-well plates with the final cell density of 1×10^4 cells/well. (cell concentration will be adjusted according to the data base or density optimization assay.) • 4. The next day, prepare 10× solution (Top working concentration: 10 μM of test article in media with 3.16-fold serial dilutions to achieve 9 dose levels). • 5. Dispense 10 μL drug solution of both test article and reference control in each well (duplicate for each drug concentration) of the plate.

The test system of the next series is KARPAS-422. Kind of series: Cell proliferation assay (CTG), KARPAS-422. The class given is cell-based. To be noted: Homo sapiens, 72 h. As for the experimental part:
as §4

Another series deals with WSU-NHL. Description: Cell proliferation assay (CTG), WSU-NHL. To be noted: Homo sapiens, 72 h. The class given is cell-based. As for the experimental part: as §4

PI3K (p110α/p85α) (h), sequence (P42336 whole entry, the tested form may be a part): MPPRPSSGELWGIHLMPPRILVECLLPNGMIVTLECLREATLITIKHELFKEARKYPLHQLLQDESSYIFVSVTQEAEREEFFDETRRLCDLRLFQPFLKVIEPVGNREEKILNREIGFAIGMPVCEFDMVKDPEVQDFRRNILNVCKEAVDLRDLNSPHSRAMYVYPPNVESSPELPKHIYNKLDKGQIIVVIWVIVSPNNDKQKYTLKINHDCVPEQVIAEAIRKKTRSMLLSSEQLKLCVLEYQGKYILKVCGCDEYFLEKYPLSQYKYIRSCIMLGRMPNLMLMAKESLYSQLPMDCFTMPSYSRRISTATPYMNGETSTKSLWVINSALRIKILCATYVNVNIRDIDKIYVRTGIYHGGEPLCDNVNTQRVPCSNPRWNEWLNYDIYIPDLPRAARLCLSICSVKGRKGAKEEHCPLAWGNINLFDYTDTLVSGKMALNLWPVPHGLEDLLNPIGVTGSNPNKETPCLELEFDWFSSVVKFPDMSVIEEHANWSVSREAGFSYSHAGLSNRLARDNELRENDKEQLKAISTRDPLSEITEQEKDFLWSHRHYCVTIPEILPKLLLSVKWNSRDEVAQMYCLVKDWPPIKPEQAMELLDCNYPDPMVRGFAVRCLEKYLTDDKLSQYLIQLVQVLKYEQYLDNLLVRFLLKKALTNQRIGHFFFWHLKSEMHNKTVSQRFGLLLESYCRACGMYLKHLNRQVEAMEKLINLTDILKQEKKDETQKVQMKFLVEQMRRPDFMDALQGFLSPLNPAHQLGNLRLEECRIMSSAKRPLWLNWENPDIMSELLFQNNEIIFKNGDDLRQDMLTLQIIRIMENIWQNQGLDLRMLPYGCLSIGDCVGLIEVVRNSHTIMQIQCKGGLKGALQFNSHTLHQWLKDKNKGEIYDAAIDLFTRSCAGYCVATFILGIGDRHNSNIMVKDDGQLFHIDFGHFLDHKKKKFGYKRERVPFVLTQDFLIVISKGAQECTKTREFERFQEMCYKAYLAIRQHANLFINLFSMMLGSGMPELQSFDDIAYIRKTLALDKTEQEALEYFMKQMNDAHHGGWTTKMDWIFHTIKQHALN
PI3K (p110α/p85α) (h), sequence (P27986 whole entry partner, the tested form may be a part): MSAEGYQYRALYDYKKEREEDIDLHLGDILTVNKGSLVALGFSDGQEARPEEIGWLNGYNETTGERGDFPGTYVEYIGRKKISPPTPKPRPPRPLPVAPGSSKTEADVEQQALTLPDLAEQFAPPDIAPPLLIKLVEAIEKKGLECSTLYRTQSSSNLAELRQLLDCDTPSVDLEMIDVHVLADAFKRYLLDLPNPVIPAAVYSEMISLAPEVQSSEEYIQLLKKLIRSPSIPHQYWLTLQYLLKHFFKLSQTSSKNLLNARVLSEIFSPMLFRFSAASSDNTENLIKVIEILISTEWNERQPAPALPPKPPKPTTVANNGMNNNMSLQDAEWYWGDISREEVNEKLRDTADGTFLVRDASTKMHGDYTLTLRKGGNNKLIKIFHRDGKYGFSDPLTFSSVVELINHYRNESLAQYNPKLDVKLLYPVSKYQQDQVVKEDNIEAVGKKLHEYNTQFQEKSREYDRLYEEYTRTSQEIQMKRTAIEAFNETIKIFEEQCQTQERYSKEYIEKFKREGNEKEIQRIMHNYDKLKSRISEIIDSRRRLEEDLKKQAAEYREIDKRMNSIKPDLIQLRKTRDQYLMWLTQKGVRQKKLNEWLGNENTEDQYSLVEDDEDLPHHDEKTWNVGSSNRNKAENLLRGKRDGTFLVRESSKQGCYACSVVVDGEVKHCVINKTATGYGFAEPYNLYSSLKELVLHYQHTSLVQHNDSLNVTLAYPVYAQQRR
PI3K (p120γ) (h), sequence (P48736 whole entry): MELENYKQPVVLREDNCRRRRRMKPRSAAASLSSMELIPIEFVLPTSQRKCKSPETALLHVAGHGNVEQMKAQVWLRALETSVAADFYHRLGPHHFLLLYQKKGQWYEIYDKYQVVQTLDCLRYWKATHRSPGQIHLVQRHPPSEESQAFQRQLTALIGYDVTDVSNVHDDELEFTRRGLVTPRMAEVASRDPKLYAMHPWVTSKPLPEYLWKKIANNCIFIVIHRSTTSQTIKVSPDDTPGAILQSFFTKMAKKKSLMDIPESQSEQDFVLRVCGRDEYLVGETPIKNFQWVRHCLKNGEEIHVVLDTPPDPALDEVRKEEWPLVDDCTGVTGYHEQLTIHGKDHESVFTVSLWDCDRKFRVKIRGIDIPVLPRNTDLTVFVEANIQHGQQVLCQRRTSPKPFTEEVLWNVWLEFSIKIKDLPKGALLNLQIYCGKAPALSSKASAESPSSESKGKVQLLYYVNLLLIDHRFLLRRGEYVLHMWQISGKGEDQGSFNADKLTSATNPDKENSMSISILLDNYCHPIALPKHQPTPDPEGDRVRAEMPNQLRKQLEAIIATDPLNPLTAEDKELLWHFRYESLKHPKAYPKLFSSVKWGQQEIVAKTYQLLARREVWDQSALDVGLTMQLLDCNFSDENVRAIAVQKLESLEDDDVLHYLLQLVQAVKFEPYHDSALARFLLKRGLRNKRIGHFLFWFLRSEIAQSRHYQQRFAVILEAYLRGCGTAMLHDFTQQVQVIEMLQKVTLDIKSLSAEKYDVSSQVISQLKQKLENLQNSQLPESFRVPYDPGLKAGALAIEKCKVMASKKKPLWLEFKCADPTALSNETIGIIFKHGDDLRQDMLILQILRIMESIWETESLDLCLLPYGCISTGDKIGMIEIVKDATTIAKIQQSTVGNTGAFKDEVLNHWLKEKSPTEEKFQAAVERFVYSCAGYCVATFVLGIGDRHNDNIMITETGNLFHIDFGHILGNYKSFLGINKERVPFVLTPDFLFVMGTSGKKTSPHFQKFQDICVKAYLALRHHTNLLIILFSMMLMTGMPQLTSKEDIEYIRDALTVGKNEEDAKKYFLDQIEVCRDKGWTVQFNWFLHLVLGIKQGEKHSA

What is called CLint scaled is a measure of how fast metabolising enzymes remove a compound, apart from limits set by blood flow. As usually defined, the clearance is the volume of plasma or blood freed of the substance per unit of time. Low readings indicate inefficient removal, high ones efficient removal. What is called AUC(0-t) is the area under the concentration-time curve up to a stated or last time point. A low value points to low exposure. For orientation: bioavailability means the share of a dose that reaches the circulation, judged against a reference dose that is usually intravenous. For orientation: IC50 means the point on the concentration scale where inhibition reaches its midpoint. Consider `Cc1noc(-c2c(N)ncnc2N[C@@H](C)c2nc3cccc(C#CCO)c3c(=O)n2-c2ccccc2)n1` [Example 34, (S)-2-(1-((6-amino-5-(3-methyl-1,2,4-oxadiazol-5-yl)pyrimidin-4-yl)amino)ethyl)-5-(3-hydroxyprop-1-yn-1-yl)-3-phenylquinazolin-4(3H)-one], for which the intrinsic clearance (CLint scaled) at 5 μM in series [1] (liver microsomes, in vivo CLint extrapolated from human liver microsome incubation) was 36.9 mL/min/kg. For the same compound, the half-life at 5 μM in series [1] (human liver microsomes 0.5 mg protein/mL, compound 5 μM, NADPH, 37° C., read-out: Human T1/2) stood at 47.1 min. In addition, the clearance in [2] (iv dosing 1 mg/kg) was 25 mL/min/kg. In addition, the AUC(0-t) in series [2] (rat, plasma, iv dosing 1 mg/kg) worked out at 671 ng·h/mL. In series [2] (rat, plasma, iv dosing 1 mg/kg), this compound gave a half-life of 54.6 min. The Vd in [2] (rat, plasma, iv dosing 1 mg/kg, read-out: Vss) came out at 1.68 L/kg. The bioavailability in series [2] (rat, plasma, oral bioavailability) stood at 56.8%. Moreover, the half-inhibitory concentration (IC50) was 770 nM at PI3K (p110α/p85α) (h); 192 nM at PI3K (p120γ) (h); 2600 nM in the series with PI3K-α (SKOV3); 0.65 nM in the series on PI3K-δ (RAJI); 128 nM with PI3K-γ (RAW264.7); 318 nM with CCRF-SB. In addition, the IC50 in the series on KARPAS-422 stood at 310 nM; with WSU-NHL, 49 nM.

These data come from patent US10751339B2, “Substituted aminopyrimidine compounds and methods of use” (SUNSHINE LAKE PHARMA CO., LTD., priority 2018, dated 2020).
